The source of these data is publication PMC9962372, “Antiparasitic Meroterpenoids Isolated from Memnoniella dichroa CF-080171” (Pharmaceutics, 2023).

Structures are written as SMILES.

The first series has as its system P. falciparum 3D7. The experiment in a line: P. falciparum 3D7 lactate dehydrogenase whole parasite assay. The format is cell-based, Plasmodium falciparum. The settings on record: Plasmodium falciparum, 3D7; 72 h, LDH readout, 16-point curves in triplicate; read-out: Antiparasitic EC50 P. falciparum 3D7. The procedure:
The EC50 determinations of the isolated compounds were performed with 16-point dose-response curves. Each concentration was evaluated in triplicate (concentration range of 100–0.00305 µM) using the P. falciparum 3D7 lactate dehydrogenase whole parasite assay as previously described by Pérez-Moreno et al., 2016 [25]. The Plasmodium falciparum 3D7 strain is a clone of the NF54 strain, which was previously isolated from a patient. The parasites were maintained in O^+ human erythrocytes at 5% haematocrit and 0.1–8% parasitaemia, with incubation at 37 °C, 1% O2, 5% CO2, and 94% N2 in complete medium (10.4 g/L RPMI 1640, 150 μM hypoxanthine, 12.5 μg/mL gentamicin, 0.2% NaHCO3, 0.5% albuMAX II, 2% human O^+ serum). The […] (LDH) assay was performed in 384-well plates using late-ring/early trophozoite synchronized parasites at 2% hematocrit and 0.25% parasitaemia. Twenty-five microliters of (25 µL) parasite culture were incubated with 5 µL of the test compounds (parasite medium/100 nM chloroquine used as positive/negative growth controls) for 72 h, after which the plates were frozen for 4 h, thawed for 1 h at room temperature before adding 70 µL of freshly prepared LDH solution (1 U/mL diaphorase, 143 µM APAD, 143 mM sodium L-lactate, 178.75 µM NBT, 0.7% Tween 20, 100 mM Tris-HCL) at pH 8.0. Plates were briefly shaken and incubated for 10 min (in the dark), and absorbance was read at 650 nm in an Envision plate reader (Perkin Elmer, Waltham, MA, USA).
(§1) The EC50 of all the biological assays were computed with the Genedata Screener application (Genedata AG, Basel, Switzerland) using the equation below to calculate percentage inhibition: Percentage inhibition=[1−(Abswell−Absneg/Abspos−Absneg)]×100
(§2) Here, Abswell = absorbance/well, Abspos = average absorbance in positive control wells, and Absneg = average absorbance in negative wells.
As a reminder, the EC50 is the concentration at which the effect is half-maximal. Take `C/C(=C\CCC1(C)C=Cc2c(cc3c(c2O)C(=O)OC3)O1)CCC(O)C(C)(C)O` (centres unmarked) [Compound 5]: the concentration giving a half-maximal response (EC50) was determined as 8 ± 0.2 µM.
For the compound `Cc1cc(O)c2c(c1)O[C@]1(C)CC[C@H]3C(C)(C)[C@@H](O)CC[C@]3(C)[C@H]1C2` [Compound 6], the EC50 came to 4 ± 0.1 µM.
The same measure, in the same setting: the value for `C=C1CC[C@H]2C(C)(C)C(=O)CC[C@]2(C)[C@H]1Cc1c(O)cc2c(c1O)C(=O)OC2` [Compound 7] was > 100 µM.
Turning to `CC1(C)[C@@H](O)CC[C@]2(C)[C@H]3Cc4c(O)cc5c(c4O[C@]3(C)CC[C@@H]12)C(=O)OC5` [Compound 8], the EC50 turned out to be 17.8 ± 0.1 µM.

In a further series the test system is T. cruzi Tulahuen C4. The experiment in a line: Transgenic T. cruzi β-D-galactosidase assay in infected L6 cells. In kind it is cell-based, Trypanosoma cruzi. The settings on record: Trypanosoma cruzi, TULAHUEN, L6, 96 h, 96 h, infected L6 host cells, β-galactosidase readout; read-out: Antiparasitic EC50 T. cruzi Tulahuen C4. The procedure:
as §1, §2
The EC50 determinations of the isolated compounds were performed with 16-point dose-response curves. Each concentration was evaluated in triplicate (concentration range of 50–0.00152 µM) in the transgenic T. cruzi β-D-galactosidase assay as previously described by Annang et al., 2014 [27]. The T. cruzi Tulahuen strain used is a genetically modified strain that expresses the Escherichia coli β-galactosidase gene, lacZ [28]. It was kindly supplied by Marcel Kaiser (Swiss Tropical and Public Health Institute). The parasites were generally maintained in a growth medium (RPMI 1640 supplemented with 10% inactivated fetal bovine serum (iFBS), 100 µg/mL streptomycin, 100 U/mL penicillin, 2 mM L-glutamine) at 37 °C, 5% CO2. For the assay, transgenic trypomastigote stage parasites were used to infect L6 rat skeletal muscle cells (host). Fifty-five microliters (55 µL) of the infected L6 cell culture were dispensed into 384-well assay plates (2 × 10^3 infected L6 cells/well) containing 5 µL of the test compounds (parasite medium/10 µgmL^−1 benznidazole were used as positive/negative growth controls) and incubated for 96 h at 37 °C, after which 15 µL of assay solution (100 µM CRPG and 0.1% NP40 made up in PBS) were added to each well, and plates were further incubated in the dark for 4 h at 37 °C. Absorbance in the wells was read at 585 nm in an Envision plate reader (Perkin Elmer, Waltham, MA, USA).
In the case of `C/C(=C\CCC1(C)C=Cc2c(cc3c(c2O)C(=O)OC3)O1)CCC(O)C(C)(C)O` (centres unmarked) [Compound 5], the 50% effective concentration (EC50) was > 50 µM.
Still for that read-out and setting: the value for `Cc1cc(O)c2c(c1)O[C@]1(C)CC[C@H]3C(C)(C)[C@@H](O)CC[C@]3(C)[C@H]1C2` [Compound 6] was 7 ± 0.2 µM; that for `C=C1CC[C@H]2C(C)(C)C(=O)CC[C@]2(C)[C@H]1Cc1c(O)cc2c(c1O)C(=O)OC2` [Compound 7] was > 50 µM; that for `CC1(C)[C@@H](O)CC[C@]2(C)[C@H]3Cc4c(O)cc5c(c4O[C@]3(C)CC[C@@H]12)C(=O)OC5` [Compound 8] was > 50 µM.

The series is the same for the next values; noted with them: whole parasites; extracts in HTS / bioassay-guided testing.
Turning to `C/C(=C\CCC1(C)C=Cc2c(cc3c(c2O)C(=O)OC3)O1)CCC(O)C(C)(C)O` (centres unmarked) [Compound 5], the “activity against T. cruzi Tulahuen (in words)” value is “low or no biological activity”.
The same measure, in the same setting: the value for `Cc1cc(O)c2c(c1)O[C@]1(C)CC[C@H]3C(C)(C)[C@@H](O)CC[C@]3(C)[C@H]1C2` [Compound 6] was “low or no biological activity”.
With `C=C1CC[C@H]2C(C)(C)C(=O)CC[C@]2(C)[C@H]1Cc1c(O)cc2c(c1O)C(=O)OC2` [Compound 7], the “activity against T. cruzi Tulahuen (in words)” value is listed as “low or no biological activity”.
The same measure, in the same setting: the value for `CC1(C)[C@@H](O)CC[C@]2(C)[C@H]3Cc4c(O)cc5c(c4O[C@]3(C)CC[C@@H]12)C(=O)OC5` [Compound 8] was “low or no biological activity”.

System in another series: not listed separately
The experiment in a line: Cytotoxicity assay (resazurin) in L6 rat skeletal muscle cells. The settings on record: L6 rat skeletal muscle cells (ATCC CRL-1458), read-out: Cytotoxic EC50 L6. In kind it is cell-based. As to the method: Seeding of the L6 cells was done in 96-well plates at 4 × 10^3 cells per well in 100 µL volume; they were then cultured for 24 h. Ten millimolar (10 mM) DMSO stocks of the compounds to be tested were used to prepare 16-point dose-response curves. Each concentration was evaluated in triplicate (using the cell culture medium as diluent) at a final volume of 300 µL (compound concentration range of 50–0.00152 µM and DMSO at 0.5 %). The spent growth medium from the 24 h-seeded cells was carefully replaced with 100 µL of the prepared working concentrations of the compounds to be tested and incubated for 72 h. The spent medium was again carefully replaced (without disturbing the layer of cells at the bottom of each well) with 100 µL fresh medium, after which 20 µL of 0.02% resazurin (previously diluted in 1X PBS) was added to the wells and incubated for 2 h in the dark at 37 °C. The plates were then shaken for 5 s, and fluorescence was read at 570–590 nm in a TECAN Infinite F200 fluorimeter.
For orientation: The colour change of resazurin is a common sign of viable cells or microbes.
For the compound `C/C(=C\CCC1(C)C=Cc2c(cc3c(c2O)C(=O)OC3)O1)CCC(O)C(C)(C)O` (centres unmarked) [Compound 5], the EC50 at 72 h was > 50 µM.
On the same count and under the same terms, the value for `Cc1cc(O)c2c(c1)O[C@]1(C)CC[C@H]3C(C)(C)[C@@H](O)CC[C@]3(C)[C@H]1C2` [Compound 6] was 2 ± 0.1 µM; that for `C=C1CC[C@H]2C(C)(C)C(=O)CC[C@]2(C)[C@H]1Cc1c(O)cc2c(c1O)C(=O)OC2` [Compound 7] was > 50 µM.

The subject of another series is P. falciparum 3D7. Put plainly: P. falciparum 3D7 lactate dehydrogenase whole parasite assay. The format is cell-based, Plasmodium falciparum. The settings on record: whole parasites; extracts in HTS / bioassay-guided testing.
In the case of `C/C(=C\CCC1(C)C=Cc2c(cc3c(c2O)C(=O)OC3)O1)CCC(O)C(C)(C)O` (centres unmarked) [Compound 5], the “activity against P. falciparum 3D7 (in words)” value is reported as “low or no biological activity”.
On the same count and under the same terms, the value for `Cc1cc(O)c2c(c1)O[C@]1(C)CC[C@H]3C(C)(C)[C@@H](O)CC[C@]3(C)[C@H]1C2` [Compound 6] was “low or no biological activity”; that for `C=C1CC[C@H]2C(C)(C)C(=O)CC[C@]2(C)[C@H]1Cc1c(O)cc2c(c1O)C(=O)OC2` [Compound 7] was “low or no biological activity”.
As to `CC1(C)[C@@H](O)CC[C@]2(C)[C@H]3Cc4c(O)cc5c(c4O[C@]3(C)CC[C@@H]12)C(=O)OC5` [Compound 8], the “activity against P. falciparum 3D7 (in words)” value is “low or no biological activity”.

A further series has as its system three different cell lines.
Assay: not given
On the set-up: method as in PMID 10656571. The settings on record: at 100 µM; cited from earlier work.
As to `CC(=O)O[C@H]1CC[C@]2(C)[C@H]3Cc4c(O)cc5c(c4O[C@@]3(C)CC[C@H]2C1(C)C)CN(CCO)C5=O` [Memnobotrin B], the “cytotoxic activity, inhibition percentages” value is recorded as 80–90%.
